In patent US20040019092A1, “Non-peptide somatostatin receptor ligands” (priority 2001, published 2004):
Values joined by “and” are separate entries in the source; they are usually repeats but may differ in a detail not shown here. Equal values may be shown once.

Columns and labels:
[1] = target: T1, human sst2 receptor sub-type (Homo sapiens, UniProt P30874); assay: In vitro binding, human sst2 receptor sub-type (SSTR2); conditions: Tables 8/9: Bind SSTR2 nM
T1 construct: host or cells: SRIF receptor expressing cell cultures (general statement only)
T1 sequence (P30874 whole entry): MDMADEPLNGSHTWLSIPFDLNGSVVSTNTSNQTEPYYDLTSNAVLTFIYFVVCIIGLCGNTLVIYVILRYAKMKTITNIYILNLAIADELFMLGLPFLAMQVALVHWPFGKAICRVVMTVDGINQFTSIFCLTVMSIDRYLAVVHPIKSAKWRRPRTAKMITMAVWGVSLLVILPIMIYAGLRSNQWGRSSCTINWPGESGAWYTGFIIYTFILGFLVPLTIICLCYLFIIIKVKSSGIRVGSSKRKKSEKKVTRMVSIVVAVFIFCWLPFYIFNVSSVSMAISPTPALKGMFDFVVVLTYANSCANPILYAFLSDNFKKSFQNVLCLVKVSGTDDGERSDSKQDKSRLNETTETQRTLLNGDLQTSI
Method: The in vitro binding affinities for rat cortex SRIF receptors and the human sst2 receptor sub-type was assessed. Further the in vitro inhibition of the GHRH induced GH secretion in primary cultures of rat pituitary cells as well as the in vivo inhibition of GH secretion in the rat after systemic or enteral application was studied. […] Therefore, the in vivo activities of the compounds in rats with respect to inhibition of growth hormone release was also assessed. Most compounds selected were tested by enteral—intraduodenal (i.d.) application. For determination of the absolute activity and for the calculation of an enteral bioavailability, single subcutaneous (s.c.) application of intravenous (i.v.) infusion was used.

[2] = tested on: GHRH stimulated GH secretion; assay: GH secretion in vivo, rat, intravenous infusion with repeated GHRH stimulation; conditions: for INFUS. + GHRH ID50 MEAN: Table 4, mean of infusion time points; for INFUS. + GHRH ID50 15′ / INFUS. + GHRH ID50 30′ / INFUS. + GHRH ID50 60′: Table 4, urethan; for GH vivo Inf + GHRH ID50 (mean of time points): urethane, i.v. infusion, GHRH stimulated
Method: (§1) Animals, anesthesia: Male rats of a Sprague Dawley strain (Ico:OFA-SD, Iffa-Credo, F-Lyon) of 200-300 g body weight were used. They were kept under standardized conditions and were anesthetized with pentobarbital-sodium (Siegfried, CH Zofingen), 60 mg/kg i.p. for subcutaneous and intraduodenal applications. Animals designed for an infusion experiment were anesthetized with urethane (Siegfried, CH Zofingen), 1.2 g/kg i.p.
(§2) Stock solutions of the compounds were prepared in water with the addition of the necessary adjunct(s). Further dilutions were prepared allowing 5 mL/kg for subcutaneous application, 2 mL for intraduodenal (i.d.) application or 4.5 mL/kg for intravenous infusion. The solutions for the intravenous application/infusion were made isotonic by addition of glucose to a final concentration of 5%.
(§3) Applications were made, or, in the case of infusion, started, approximately 10 minutes after induction of anesthesia. No further treatment followed subcutaneous or intraduodenal application. Ten, twenty-five and fifty-five minutes after start of the intravenous infusion the GH secretion was stimulated with repeated intravenous injections of the potent GHRH analog, D-Ala2 GHRH1-29NH2, 1 μg/kg.
(§4) One hour after subcutaneous or intraduodenal application of the compounds, blood was collected from the trunk after decapitation. In the case of application by infusion, 5 minutes after each application of GHRH, a blood sample of 0.8 mL was taken from a V. jugularis and mixed with EDTA (Eppendorf tubes TOM14, Milian, CH Geneva). The blood samples were kept on ice and spun in a cooled centrifuge. The serum or plasma was separated and frozen.
(§5) Statistics: In each experiment, 4-5 animals were used per dose, with 6 to 8 animals as the control group that received the vehicle. The GH serum/plasma levels were averaged, the mean of the treated groups expressed in percent of the control group and the ID50-value for the inhibition of the secretion was determined graphically (log-probit) for each experiment. In most experiments with enteral (intraduodenal) application only 1 dose, 10 mg/kg, was given. […] Only inhibitions between 20 and 80% were considered reliable.
(§6) Two to four experiments were performed. In the case of proper dose response curves, allowing the determination of an ID50 values were averaged logarithmically. In the cases of single dose-experiments, the GH value in percent of control were averaged logarithmically and the ID50 for this value was taken from the table. ID50 values determined at the different time points during the infusion were averaged and this value was included in the tables.

[3] = tested on: GH secretion; assay: GH secretion in vivo, rat, subcutaneous application, 1 h (basal); conditions: rat, basal GH secretion, 1 h after subcutaneous application
Method: as §1
(§7) Compounds: The compounds were dissolved, optionally with the aid of one or more of the following adjuncts:
as §2, §3, §4, §5, §6

[4] = tested on: GH secretion; assay: GH secretion in vivo, rat, intraduodenal (enteral) application, 1 h (basal); conditions: for GH vivo i.d. 1 h ID50: basal GH secretion, 1 h after intraduodenal application, mostly approximate ID50 from single 10 mg/kg dose, Ø = no effect at this dose, > = extrapolated value
Method: as §1, §7, §2, §3, §4, §5, §6

[5] = tested on: GHRH stimulated GH secretion; assay: GH secretion, rat in urethan anesthesia, intraduodenal + repeated GHRH stimulation; format: in vivo
From the text: No further treatment followed subcutaneous or intraduodenal application. […] This value has been determined in a total of four independent experiments. […] However, in further studies compound 47 has also been tested by the enteral route of administration after repeated stimulation of the GH secretion by GHRH. […] With most of these selected compounds additional in vivo experiments in other models (intraduodenal application followed by repeated stimulation of the GH secretion by GHRH, oral application by gavage of unanesthetized, estradiol primed rats) were performed. Table 4 summarizes data obtained for the inhibition of the stimulated GH secretion after subcutaneous, intraduodenal and intravenous application and the inhibitory effects obtained for different time points during intravenous infusion of selected hydantoins. […] [table]

[6] = tested on: GH secretion; assay: Unanesthetized estradiol primed male rats, oral by gavage: GH; format: in vivo, rat; conditions: estradiol implant male rats, oral by gavage, 1 hour
Method: The inhibitory effect of the compounds on GH release may also be examined after oral application to male rats with oestradiol implants. This test is carried out as follows.
A loop (length 50 mmØ3 mm) of silastic with 50 mg of oestradiol is implanted under the dorsal skin of anaesthetized male OFA rats that have a weight of ca. 300 g. At various times (1 to 6 months later), these animals, in a fasted state, are used repeatedly for tests. The test substances are active in this test at doses from 0.1 to 5 mg/kg, when GH level in the blood serum is determined by radio-immunoassay 1 and 2 hours after oral administration.
(§8) Table 5 summarizes the results obtained in the estradiol primed male rats that received the compounds orally by gavage. These rats have stabilized elevated GH plasma levels as well as increased prolactin levels. In contrast to normal untreated rats, who's prolactin secretion is not sensitive to the inhibitory effect of somatostain, in these rats the prolactin secretion is inhibited to a similar degree as the GH secretion. Therefore, the inhibitory effect can be measured on 2 different parameters, GH and prolactin. The mean enteral absorption and activity of the respective compounds are shown.

[7] = tested on: prolactin secretion; assay: Unanesthetized estradiol primed male rats, oral by gavage: prolactin; format: in vivo, rat; conditions: estradiol implant male rats, oral by gavage, 1 hour; ø = no effect at this dose
From the text: as §8

[8] = tested on: GHRH induced GH secretion in primary cultures of rat pituitary cells; assay: In vitro inhibition of GHRH induced GH secretion (GH vitro +GHRH); format: cell-based
[9] = tested on: GHRH stimulated GH secretion; assay: GH secretion, rat in urethan anesthesia, subcutaneous + repeated GHRH stimulation; format: in vivo
Method: as §3
With most of these selected compounds additional in vivo experiments in other models (intraduodenal application followed by repeated stimulation of the GH secretion by GHRH, oral application by gavage of unanesthetized, estradiol primed rats) were performed. Table 4 summarizes data obtained for the inhibition of the stimulated GH secretion after subcutaneous, intraduodenal and intravenous application and the inhibitory effects obtained for different time points during intravenous infusion of selected hydantoins.

[10] = target: SS1 (Rattus norvegicus, UniProt P30680); assay: SS-1 binding (Bind SS1 D.H.)
Chain of SS1 (P30680 whole entry): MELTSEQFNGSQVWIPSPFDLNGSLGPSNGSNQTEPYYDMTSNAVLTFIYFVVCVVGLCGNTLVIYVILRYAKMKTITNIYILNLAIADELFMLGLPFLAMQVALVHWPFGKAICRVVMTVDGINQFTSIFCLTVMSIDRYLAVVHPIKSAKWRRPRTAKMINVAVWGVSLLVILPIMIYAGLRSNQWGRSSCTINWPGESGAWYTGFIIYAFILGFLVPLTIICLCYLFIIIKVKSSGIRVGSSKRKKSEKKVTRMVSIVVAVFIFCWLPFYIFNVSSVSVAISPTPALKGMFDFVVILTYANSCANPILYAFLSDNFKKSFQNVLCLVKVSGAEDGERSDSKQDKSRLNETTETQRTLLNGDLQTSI

Structure (SMILES)	IC50 [1] [pM]	INFUS. + GHRH ID50 MEAN [2] [µg/kg]	INFUS. + GHRH ID50 15′ ([2]; 15′ of infusion) [µg/kg]	INFUS. + GHRH ID50 30′ ([2]; 30′ of infusion) [µg/kg]	INFUS. + GHRH ID50 60′ ([2]; 60′ of infusion) [µg/kg]	GH vivo Inf + GHRH ID50 (mean of time points) [2] [µg/kg/h]	GH vivo s.c. 1 h ID50 [3] [µg/kg]	GH vivo i.d. 1 h ID50 [4]	GH 1 H ID50 [6] [µg/kg]	MEAN ID50 (GH and prolactin) [6] [µg/kg]	PROLACT 1 H ID50 [7] [µg/kg]	other results
Cc1cccc2c(CC3C(=O)N(CCCCCN)C(=O)N3S(=O)(=O)c3ccc(Oc4ccc(O)c(Cl)c4)c(C(=O)N(C)C)c3)c[nH]c12 (single isomer, unassigned; (+)) [(+)-43]	180	1.68	2.28	1.54	1.35	1.68	3.0	4800 µg/kg	–	–	–	GH vivo s.c. 1 h ID50 ([3]; listed as (+)−43): 3.00 µg/kg; GH vivo s.c. 1 h ID50 ([3]; listed as (+)−43 ch): 3.00 µg/kg
Cc1cccc2c(CC3C(=O)N(CCCCC(C)(C)N)C(=O)N3S(=O)(=O)c3ccc(Oc4ccc(O)c(Cl)c4)c(C(=O)N(C)C)c3)c[nH]c12 (stereo not shown) [Compound 47]	380	–	–	–	–	8.10	10.00	˜454 μg/kg	–	–	–	bioavailability calculated in the GHRH stimulated enteral model [5]: 0.3%; enteral ID50 after repeated stimulation of the GH secretion by GHRH ([5]; 1 hour): ~2600 µg/kg; enteral ID50 (GH secretion) ([4]; enteral (intraduodenal) application): 500 µg/kg; enteral bioavailability (from ID50 ratio) ([4]; intraduodenal 1 hour vs parenteral ID50): 1.8%
CN(C)C(=O)c1cc(S(=O)(=O)N2C(=O)N(CCCCCN)C(=O)C2Cc2c[nH]c3ccccc23)ccc1Oc1ccc(OC(=O)C(N)CCCCN)c(Cl)c1 (stereo not shown) [Compound 48]	2500	–	–	–	–	32.00	–	> 15000 µg/kg	11000	9950	9000	GH inhibition by the enteral route ([4]; 10 mg/kg enteral): exhibited inhibition
C[C@@H](O)[C@@H]1NC(=O)[C@H](CCCCN)NC(=O)[C@@H](Cc2c[nH]c3ccccc23)NC(=O)[C@H](Cc2ccccc2)NC(=O)[C@@H](NC(=O)[C@H](N)Cc2ccccc2)CSSC[C@@H](C(=O)N[C@H](CO)[C@@H](C)O)NC1=O [Octreotride, Octreotide, reference compound]	–	0.12	0.16	0.11	0.10	–	0.13	125 µg/kg	440	663	998	IC50 [8]: 1300 pM; SUBCUTANEOUS + GHRH ID50 15′ ([9]; 15′): 0.15 µg/kg; SUBCUTANEOUS + GHRH ID50 30′ ([9]; 30′): 0.15 µg/kg; SUBCUTANEOUS + GHRH ID50 60′ ([9]; 60′): 0.26 µg/kg; INTRADUODENAL + GHRH ID50 15′ ([5]; urethan, 15′, ø = no effect at this dose): 24.2 µg/kg; INTRADUODENAL + GHRH ID50 30′ ([5]; urethan, 30′): 16.6 µg/kg; INTRADUODENAL + GHRH ID50 60′ ([5]; urethan, 60′): 26.8 µg/kg; INTRADUODENAL + GHRH ID50 120′ ([5]; urethan, 120′, ø = no effect at this dose): 82.0 µg/kg; Bind SS1 D.H. [10]: 0.30 nM; GH, Ur Inf15′ +GHRH ([2]; Tables 8/9, urethane, 15′ of infusion): 0.124 µg/kg/h; GH, UR Inf30′ +GHRH ([2]; Tables 8/9, urethane, 30′ of infusion): 0.082 µg/kg/h; GH, UR Inf60′ +GHRH ([2]; Tables 8/9, urethane, 60′ of infusion): 0.085 µg/kg/h; GH vivo Inf + GHRH ID50 (mean of time points) ([2]; listed as Octreotride ac): 0.12 µg/kg/h and 0.096 µg/kg/h; GH vivo Inf + GHRH ID50 (mean of time points) ([2]; listed as octreotride ac): 0.096 µg/kg/h
C[C@H](N)C(=O)NCC(=O)N[C@H]1CSSC[C@@H](C(=O)O)NC(=O)[C@H](CO)NC(=O)[C@H]([C@@H](C)O)NC(=O)[C@H](Cc2ccccc2)NC(=O)[C@H]([C@@H](C)O)NC(=O)[C@H](CCCCN)NC(=O)[C@H](Cc2c[nH]c3ccccc23)NC(=O)[C@H](Cc2ccccc2)NC(=O)[C@H](Cc2ccccc2)NC(=O)[C@H](CC(N)=O)NC(=O)[C@H](CCCCN)NC1=O [SRIF14, somatostatin 14, reference compound]	–	3.90	6.00	3.35	2.90	–	–	–	–	–	–	–
